Legend:
[1] = tested on: Pellicularia sasakii; assay: Rice sheath blight control test, remedial; assay type: in vivo; conditions: inoculation 3 days before application, untreated 34.4cm
Method: (§1) Rice sheath blight control test
(§2) Rice Plants (variety: Kinmaze) are planted in earthen pots 9 cm in diameter, 3 stocks per pot. Seedlings 80 days after potting are tested and 6 pots each of them are grouped.
(§3) Pathogenic fungi Pellicularia sasakii is cultivated on a plate of potato infusion-sugar-agar at 30°C for 48 hours, and its agar disc 10mm in diameter is cut out from a peripheral colony. The disc is inserted into the inside space of the leaf sheath near the soil surface, a disc per stem. The pots are kept in a PVC shelter at the temperature of 32°-25° C and the relative humidity of 100-70%. Inoculation is carried out immediately after the applied drug has been air-dried in the prophylactic test, and 3 days before application in the remedial test.
(§4) 10 days after application of the drug, the length of each stem from ground level to the upper edge of the lesion is directly measured.

[2] = tested on: Pellicularia sasakii; assay: Rice sheath blight control test, preventive (prophylactic); assay type: in vivo; conditions: 10 days after application, untreated 34.4cm
Method: as §1, §2, §3, §4

[3] = tested on: men and beasts, as well as to fish; assay: Harmlessness to men, beasts and fish (general statement); conditions: in vivo
[4] = pKa' (neutralization, in aqueous solution); assay type: physicochemical; conditions: water
Description: 3. The elementary analysis, the molecular formulas as calculated therefrom, pKa' values, neutralization equivalents (molecular weight) and optical rotation values are given in Table 2.

[5] = tested on: useful plants; assay: Effect on useful plants (general statement); assay type: in vivo; conditions: even when applied in a high concentration
[6] = Solubilities; assay type: physicochemical
[7] = Acute toxicity in mice, intravenous injection; assay type: in vivo; conditions: mouse, in vivo
Method: (§5) The toxicity of the antibiotics can be confirmed, for instance, by administering each of the validamycins C, D, E and F, and validoxylamines A and B, intravenously to mice and measuring the LD50 value, or by measuring the median lethal dose (48 hours) for Oryzias latipes.

[8] = tested on: Cladosporium fulvum; assay: Tomato leaf mold control test; assay type: in vivo; conditions: 50 ppm; 14 days after inoculation; inoculated 3 days before application
Method: Tomato leaf mold control test
Tomato plants (variety: ponterosa) are planted in 12 cm in diameter pots, one plant per pot. The seedlings 50 days after potting are used, 6 pots/group.
Applied at the rate of 100 ml./6 pots/group as per Experiment 1.
Pathogenic fungi Cladosporium fulvum is cultured on a potato infusion-sucrose plate at 20° C for 14 days, and a suspension of conidia (5×10^5 /ml.) is prepared from the culture.
The plants are spray-inoculated with the suspension 3 days before application of the drug, at the rate of 5 ml. per pot. The pots are kept in an inoculation chamber at 25° C for 24 hours, and, then they are transferred to a greenhouse.
14 days after inoculation, the specific ratio of the average area of lesion in the leaves is measured.

[9] = tested on: Rhyzoctonia solani; assay: Cucumber damping-off control test; assay type: in vivo; conditions: 14 days after sowing
Method: Cucumber damping-off control test
Rhyzoctonia solani is cultured on barley medium at 28° C for 5 days. A field soil sample is packed into clay pots 9 cm in diameter, which are then sterilized with steam. The chaff inoculum is evenly worked into the cover soil of each pot to the depth of about 3 cm, at the rate of 2g./pot. The pots are kept in an incubation chamber at 28° C for 4 days and, then, transferred to a greenhouse.
As per Experiment 1, the drug is sprayed onto the soil surface at the rate of 30 ml./6 pots/group.
Healthy seeds of cucumber (variety: Yonyo) are sown by burial in the pots immediately after treatment, at the rate of 10 seeds/pot. The pots are then placed in a greenhouse at 32°-28° C.
14 days after sowing, the results are evaluated against the following coefficients of lesion and the degrees of damage are calculated.
Coefficients of lesion (I)
0.5 : Root hairs alone are slightly affected.
1 : Aerial portions near soil surface and roots affected.
2 : Early stage of damping-off.
3 : Affected at germination; growth inhibited.
Degree of damage (%) =(Σ(nI))/3 × N × 100 wherein n means the number of samples corresponding to each coefficient of lesion and N means the total number of plants.

[10] = Acute toxicity for Oryzias latipes (median lethal dose, 48 hours); assay type: in vivo; conditions: medaka, leaving in water solution, read-out: TLm
Method: as §5

[11] = tested on: Pellicularia sasakii; assay: Abnormal branching of hyphal tips of Pellicularia sasakii (agar dilution bioassay); assay type: cell-based; conditions: for highest dilution factor that causes an abnormal branching at the hyphal tips of Pellicularia sasakii: 1 mg./ml. aqueous solution as stock solution; for dilution unit (maximum dilution which produces abnormal branching): aqueous solution containing 1000 γ/ml., 27° C for 40 hours
Method: Therefore, the bioassay of the antibiotics should be conducted in the following manner.
Pellicularia sasakii is used as the test organism employing plain agar as the assay medium. The test organism is cultivated on a potato (sucrose) agar slant for 2 to 5 days, and the resulting culture is used to inoculate at the center of a 9-cm Petri dish plate of modified Pfeffer's medium, which is then incubated at 27° C for 2 days. By the end of this period, the mycelium will have spread over the entire surface of the plate. The growth on the circumference about 3 to 3.5 cm in radius from the center is cut out with a cork borer and the agar disc thus obtained is used as the inoculum.
A serial dilution series of agar plants containing varying concentrations of the antibiotics is prepared in the same manner as a conventional agar dilution method.
A glass disc of 8 mm in diameter and about 0.2 mm thick, is placed in the center of each of the aforementioned dilution series of agar plates, and the agar disc inoculum is then placed on the glass disc. After incubation at 27° C for 40 hours, the result is evaluated. […] The term dilution unit means the value of maximum dilution which produces such abnormal branching.
Modified Pfeffer's medium, which is employed in this assay, has the following composition.
Before using the medium, the following vitamins are added in the specified amounts. (Weight per ml. of medium)
When a 1 mg./ml. aqueous solution of each of validamycins C, D, E and F and validoxylamines A and B is used as a stock solution, the highest dilution factor that causes an abnormal branching at the hyphal tips of Pellicularia sasakii is as follows.

[12] = tested on: plant diseases; assay: Control of plant diseases (general statement); assay type: in vivo; conditions: for controlling effect against plant diseases, for example, the sheath blight of the rice plant: application in vivo; for effectiveness against sheath blight and stem rot of rice plant, damping off and sclerotial blight of vegetables, flowering plants and lumber seedlings: in vivo
[13] = tested on: bacteria and fungi; assay: Antimicrobial potency / growth inhibition in vitro; assay type: cell-based

Row | Compound | Remedial effect (percent of the average length of lesion/stem per control untreated) ([1]; 10 ppm) [%] | Remedial effect (percent of the average length of lesion/stem per control untreated) ([1]; 30 ppm) [%] | Remedial effect (percent of the average length of lesion/stem per control untreated) ([1]; 100 ppm) [%] | Remedial effect (percent of the average length of lesion/stem per control untreated) ([1]; 300 ppm) [%] | Preventive effect (percent of the average length of lesion/stem per control untreated) ([2]; 3 ppm) [%] | Preventive effect (percent of the average length of lesion/stem per control untreated) ([2]; 10 ppm) [%] | Preventive effect (percent of the average length of lesion/stem per control untreated) ([2]; 30 ppm) [%] | Preventive effect (percent of the average length of lesion/stem per control untreated) ([2]; 100 ppm) [%] | Preventive effect (percent of the average length of lesion/stem per control untreated) ([2]; 300 ppm) [%] | harmfulness to men and beasts, as well as to fish [3] | pKa [4] | effect on germination, growth, yield and other features of useful plants [5] | solubility in methanol [6] | LD50 [7] [mg/kg] | Specific area of lesion [8] [%] | Degree of damage ([9]; 5 ppm) [%] | Degree of damage ([9]; 20 ppm) [%] | Degree of damage ([9]; 80 ppm) [%] | LC50 at 48 h [10] [µg/mL] | highest dilution factor that causes an abnormal branching at the hyphal tips of Pellicularia sasakii [11] | also measured
1 | OCC1=CC(NC2CC(CO)C(O)C(O)C2O)C(O)C(O)C1O (centres unmarked) [Validoxylamine A] | 28 | 14 | 10 | 7 | 28 | 4 | 1 | 0 | 0 | substantially harmless | 6.2 ± 0.2 | do not substantially affect | soluble | > 2000 | 6 | 84 | 6 | 0 | > 1000 | 100 | Remedial effect (percent of the average length of lesion/stem per control untreated) ([1]; 3 ppm): 83%; dilution unit (maximum dilution which produces abnormal branching) [11]: 100 dilution unit/ml.; controlling effect against plant diseases, for example, the sheath blight of the rice plant [12]: excellent controlling effect; effectiveness against sheath blight and stem rot of rice plant, damping off and sclerotial blight of vegetables, flowering plants and lumber seedlings [12]: very effective; antimicrobial potency / growth inhibition of bacteria and fungi in vitro [13]: no antimicrobial potency
2 | OCC1=C[C@H](NC2C(O)C(O)C(O)C(CO)C2O)[C@H](O)[C@@H](O)[C@@H]1O (some centres unmarked) [Validoxylamine B] | 93 | 75 | 51 | 10 | 49 | 47 | 32 | 16 | 8 | substantially harmless | 5 ± 0.2 | do not substantially affect | more sparingly soluble | > 2000 | 36 | 100 | 100 | 75 | > 1000 | 10 | solubility in pyridine ([6]; pyridine): more sparingly soluble; dilution unit (maximum dilution which produces abnormal branching) [11]: 10 dilution unit/ml.; controlling effect against plant diseases, for example, the sheath blight of the rice plant [12]: excellent controlling effect; effectiveness against sheath blight and stem rot of rice plant, damping off and sclerotial blight of vegetables, flowering plants and lumber seedlings [12]: very effective; antimicrobial potency / growth inhibition of bacteria and fungi in vitro [13]: no antimicrobial potency
